System: human immortalized myoblasts (cell line 8220)
Experiment: 2-deoxyglucose treatment during myoblast proliferation
Assay type: cell-based
Text: FIG. 2. Deficiency of TDP-43 or FUS curtails anaerobic glucose metabolism and induces pro-atrophic pathways in myoblasts. A-B-C, Metabolic switch during myogenesis. Myoblasts rely mainly on anaerobic glycolysis while differentiating myocytes and myotubes switch towards a more aerobic metabolism (n=6 experiments). D, shTDP-43 and shFUS-treated myoblasts display consistent reductions in basal glycolysis and glycolytic capacity (n=6 experiments). E, Levels of lactate are decreased in shTDP-43 and shFUS-treated myoblasts (n=3). F, Basal mitochondrial ATP production is slightly affected by TDP-43 or FUS silencing, however effects on spare respiratory capacity are variable (n=6 experiments). G, Immunofluorescence and immublot images of MyoD in 2dg-treated myoblasts. H, Immunostaining images showing the effect of 2dg on the number of MyHC-postive myotubes. I, Pro-atrophic pathways of the […] (UPS) are dramatically augmented in shTDP-43 and shFUS-treated myoblasts (n=3). ECAR, Extracellular Acidification Rate; OCR, Oxygen Consumption Rate: 2dg, 2-deoxyglucose. T-test, *p<0.05; **p<0.01.
Decreased levels of lactate in homogenates from shTDP-43 and shFUS-treated myoblasts when compared to those from shRNA-treated myoblasts corroborated defects in the anaerobic oxidation of glucose (FIG. 2E). […] The increased numbers of mitochondria, as observed by TEM and TOMM20 staining (FIG. 1F,G), may provide a compelling explanation for the increased aerobic potential of shTDP-43 treated myoblasts.
A poor metabolic fitness in muscle is often associated to the upregulation of protein degradation pathways and atrophy. Expression of the key muscle specific E3 ubiquitin ligases, muscle RING finger 1 (MuRF1) and muscle atrophy F-box (MAFbx)/Atrogin-1, are markers of the activation of ubiquitin/proteasome system and atrophy in skeletal muscle.

[1] = 2-DG during myoblast proliferation

O=CC[C@@H](O)[C@H](O)[C@H](O)CO [2-DG, 2-deoxyglucose]
activation of MYOD [1]: reduced the activation of MYOD
myogenic process (MyHC-positive myotubes) [1]: stalled the myogenic process
expression levels of MurF1 and Atrogin-1 (2-DG treated myoblasts): mimicked the effects of TDP-43 and FUS silencing

From patent US20240277695A1, “FOXO INHIBITORS FOR USE IN THE TREATMENT OF DISEASES CAUSED BY ABNORMAL PROCESSING OF TDP-43 AND/OR FUS PROTEINS” (Administración General de la Comunidad Autónoma de Euskadi, priority 2020, published 2024)
